According to article PMC4176347, “Zinc finger oxidation of Fpg/Nei DNA glycosylases by 2-thioxanthine: biochemical and X-ray structural characterization” (Nucleic Acids Research, 2014):

Legend:
LlFpg [1] = biological target: T1, LlFpg (Lactococcus cremoris, UniProt P42371); assay: X-ray crystal structures of LlFpg/DNA treated with 2TX ([…] Å THF-DNA; […] Å Bz-cFapyG-DNA); assay type: binding; conditions: covalent disulfide to C248 (THF-DNA) or C268 (Bz-cFapyG-DNA); stacks on W179; outside active site; zinc lost
T1 construct: gene mutM; full-length recombinant from pFlag-CTC-WT-LlFpg, E. coli BH540 (fpg mutY) host, purified to homogeneity; zinc finger C245/C248/C265/C268
T1 sequence (P42371 2-273): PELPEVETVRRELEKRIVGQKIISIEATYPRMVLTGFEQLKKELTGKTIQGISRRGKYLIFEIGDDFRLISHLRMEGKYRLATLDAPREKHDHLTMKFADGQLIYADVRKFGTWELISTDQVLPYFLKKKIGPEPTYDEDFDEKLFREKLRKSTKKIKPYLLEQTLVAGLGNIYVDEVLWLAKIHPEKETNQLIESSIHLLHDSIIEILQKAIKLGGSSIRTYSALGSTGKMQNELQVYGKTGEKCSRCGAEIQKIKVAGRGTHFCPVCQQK

hNEIL2 [2] = biological target: T2, hNEIL2 (Homo sapiens, UniProt Q969S2); assay: PAR assay, 2TX-induced Zn2+ release, A500; assay type: binding; conditions: free enzyme without DNA; 5 μM enzyme, 10 mM 2TX, 100 μM PAR, 25 mM Hepes/KOH pH 7.5, 70 mM KCl, 8% DMSO, room temperature; covalent
T2 construct: gene NEIL2; 6His-hNEIL2 fusion, vector pPR363, expressed in E. coli BL21CodonsPlus; CHC2-type zinc finger
T2 sequence (Q969S2 1-332): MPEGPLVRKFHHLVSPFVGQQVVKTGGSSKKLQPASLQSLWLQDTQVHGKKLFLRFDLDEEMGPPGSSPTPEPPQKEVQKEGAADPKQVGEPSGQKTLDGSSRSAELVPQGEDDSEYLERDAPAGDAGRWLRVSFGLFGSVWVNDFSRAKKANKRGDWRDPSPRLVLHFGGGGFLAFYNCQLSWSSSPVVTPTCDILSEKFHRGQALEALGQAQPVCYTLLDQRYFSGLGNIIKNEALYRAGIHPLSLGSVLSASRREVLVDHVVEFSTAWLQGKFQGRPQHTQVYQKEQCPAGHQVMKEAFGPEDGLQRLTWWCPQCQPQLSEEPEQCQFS
From the text: PAR assay, 2TX-induced Zn2+ release, A500 on hNEIL2

EcNei [3] = biological target: T3, EcNei (Escherichia coli, UniProt P50465); assay: Hyd-DNA glycosylase assay, […]-labelled 24-mer, Urea-PAGE; assay type: biochemical; conditions: Hyd:G double-stranded DNA, 30 min, 37°C, 8% DMSO
T3 construct: gene nei; full-length, C-terminal 6His-tag, pET22b derivative, expressed in E. coli BL21(DE3)

LlFpg [4] = biological target: T1, LlFpg; assay: 8-oxoG-DNA glycosylase assay, […]-labelled 24-mer, gel; assay type: biochemical; conditions: 5 nM enzyme, 25 nM 8-oxoG-DNA, 0-250 μM 2TX, 30 min, 37°C, 8% DMSO
EcNei [5] = biological target: T3, EcNei; assay: PAR assay, 2TX-induced Zn2+ release, A500; assay type: binding; conditions: free enzyme without DNA; 5 μM enzyme, 10 mM 2TX, 100 μM PAR, 25 mM Hepes/KOH pH 7.5, 70 mM KCl, 8% DMSO, room temperature; covalent
From the text: PAR assay, 2TX-induced Zn2+ release, A500 on EcNei

LlFpg [6] = biological target: T1, LlFpg; assay: PAR assay, 2TX-induced Zn2+ release, A500; assay type: binding; conditions: free enzyme without DNA; 5 μM enzyme, 10 mM 2TX, 100 μM PAR, 25 mM Hepes/KOH pH 7.5, 70 mM KCl, 8% DMSO, room temperature; covalent
From the text: PAR assay, 2TX-induced Zn2+ release, A500 on LlFpg

hNEIL2 [7] = biological target: T2, hNEIL2; assay: Hyd-DNA glycosylase assay, […]-labelled 24-mer, Urea-PAGE; assay type: biochemical; conditions: Hyd single-stranded DNA, 30 min, 37°C, 8% DMSO
[8] = biological target: T4, LlFpg WT (Lactococcus lactis) (UniProt P42371); assay: EMSA; conditions: apparent Kd, N at position 7 of strand 1 = tetrahydrofuran (THF) abasic site analogue, opposite C, EMSA: 0.1 nM 32P-labelled 14-mer THF-DNA, 0-16 nM LlFpg (2 nM in 2TX assays), 20 min at 4 C / on ice, with or without 8% DMSO, buffer and pH as in cited …
T4 sequence: T1 sequence (P42371 2-273)

T3 sequence (P50465 2-263): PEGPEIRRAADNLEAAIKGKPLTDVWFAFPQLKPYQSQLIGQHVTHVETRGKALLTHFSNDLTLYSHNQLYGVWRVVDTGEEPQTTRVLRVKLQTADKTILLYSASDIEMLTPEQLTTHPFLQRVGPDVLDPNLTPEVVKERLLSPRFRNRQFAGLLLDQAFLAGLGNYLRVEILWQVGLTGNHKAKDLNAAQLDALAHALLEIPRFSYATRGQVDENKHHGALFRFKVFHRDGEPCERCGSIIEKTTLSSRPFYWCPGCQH

kobs (min^-1)^a / - DNA (hNEIL2 [2]) [min⁻¹] | kobs (min^-1)^a / - DNA (EcNei [5]) [min⁻¹] | kobs (min^-1)^a / - DNA (LlFpg [6]) [min⁻¹] | Compound | X-ray crystal structures of LlFpg/DNA treated with 2TX (2.4 Å THF-DNA); 2.1 Å Bz- (LlFpg [1]) | Hyd-DNA glycosylase assay, 32P-labelled 24-mer, Urea-PAGE (EcNei [3]) | 8-oxoG-DNA glycosylase assay, 32P-labelled 24-mer, gel (LlFpg [4]) | Hyd-DNA glycosylase assay, 32P-labelled 24-mer, Urea-PAGE (hNEIL2 [7]) | Kd ([8]; 8% DMSO) [nM] | Kd ([8]; without DMSO) [nM]
0.180 ± 0.002 | 0.296 ± 0.001 | 0.073 ± 0.001 | O=c1[nH]c(=S)[nH]c2nc[nH]c12 [2TX, 2-thioxanthine] | a 2TX molecule covalently bound to C268 was easily modeled in the electron density map | The Hyd-DNA glycosylase activity of EcNei and hNEIL2 were also strongly inhibited by 2TX | excision of 8-oxoG from 24-mer DNA duplex (Supplementary Figure S2) by LlFpg was inhibited | The Hyd-DNA glycosylase activity of EcNei and hNEIL2 were also strongly inhibited by 2TX |  | 
 |  |  | CTCTTTNTTTCTCG / GCGAGAAACAAAGA [14-mer THF-DNA] |  |  |  |  | 3 | 10
